Reference: PMC7012919, “TRPM7 contributes to progressive nephropathy” (Scientific Reports, 2020)

Molecular target: TRPM7 (Rattus norvegicus, UniProt Q925B3)
Assay: whole-cell patch clamp of endogenous TRPM7 currents in NRK-52E and NRK-49F cells ([…] complete block); IC50 from Fura-2 Mn2+ quench in NRK-52E cells
Assay type: cell-based

Sequence of TRPM7 (Q925B3 whole entry): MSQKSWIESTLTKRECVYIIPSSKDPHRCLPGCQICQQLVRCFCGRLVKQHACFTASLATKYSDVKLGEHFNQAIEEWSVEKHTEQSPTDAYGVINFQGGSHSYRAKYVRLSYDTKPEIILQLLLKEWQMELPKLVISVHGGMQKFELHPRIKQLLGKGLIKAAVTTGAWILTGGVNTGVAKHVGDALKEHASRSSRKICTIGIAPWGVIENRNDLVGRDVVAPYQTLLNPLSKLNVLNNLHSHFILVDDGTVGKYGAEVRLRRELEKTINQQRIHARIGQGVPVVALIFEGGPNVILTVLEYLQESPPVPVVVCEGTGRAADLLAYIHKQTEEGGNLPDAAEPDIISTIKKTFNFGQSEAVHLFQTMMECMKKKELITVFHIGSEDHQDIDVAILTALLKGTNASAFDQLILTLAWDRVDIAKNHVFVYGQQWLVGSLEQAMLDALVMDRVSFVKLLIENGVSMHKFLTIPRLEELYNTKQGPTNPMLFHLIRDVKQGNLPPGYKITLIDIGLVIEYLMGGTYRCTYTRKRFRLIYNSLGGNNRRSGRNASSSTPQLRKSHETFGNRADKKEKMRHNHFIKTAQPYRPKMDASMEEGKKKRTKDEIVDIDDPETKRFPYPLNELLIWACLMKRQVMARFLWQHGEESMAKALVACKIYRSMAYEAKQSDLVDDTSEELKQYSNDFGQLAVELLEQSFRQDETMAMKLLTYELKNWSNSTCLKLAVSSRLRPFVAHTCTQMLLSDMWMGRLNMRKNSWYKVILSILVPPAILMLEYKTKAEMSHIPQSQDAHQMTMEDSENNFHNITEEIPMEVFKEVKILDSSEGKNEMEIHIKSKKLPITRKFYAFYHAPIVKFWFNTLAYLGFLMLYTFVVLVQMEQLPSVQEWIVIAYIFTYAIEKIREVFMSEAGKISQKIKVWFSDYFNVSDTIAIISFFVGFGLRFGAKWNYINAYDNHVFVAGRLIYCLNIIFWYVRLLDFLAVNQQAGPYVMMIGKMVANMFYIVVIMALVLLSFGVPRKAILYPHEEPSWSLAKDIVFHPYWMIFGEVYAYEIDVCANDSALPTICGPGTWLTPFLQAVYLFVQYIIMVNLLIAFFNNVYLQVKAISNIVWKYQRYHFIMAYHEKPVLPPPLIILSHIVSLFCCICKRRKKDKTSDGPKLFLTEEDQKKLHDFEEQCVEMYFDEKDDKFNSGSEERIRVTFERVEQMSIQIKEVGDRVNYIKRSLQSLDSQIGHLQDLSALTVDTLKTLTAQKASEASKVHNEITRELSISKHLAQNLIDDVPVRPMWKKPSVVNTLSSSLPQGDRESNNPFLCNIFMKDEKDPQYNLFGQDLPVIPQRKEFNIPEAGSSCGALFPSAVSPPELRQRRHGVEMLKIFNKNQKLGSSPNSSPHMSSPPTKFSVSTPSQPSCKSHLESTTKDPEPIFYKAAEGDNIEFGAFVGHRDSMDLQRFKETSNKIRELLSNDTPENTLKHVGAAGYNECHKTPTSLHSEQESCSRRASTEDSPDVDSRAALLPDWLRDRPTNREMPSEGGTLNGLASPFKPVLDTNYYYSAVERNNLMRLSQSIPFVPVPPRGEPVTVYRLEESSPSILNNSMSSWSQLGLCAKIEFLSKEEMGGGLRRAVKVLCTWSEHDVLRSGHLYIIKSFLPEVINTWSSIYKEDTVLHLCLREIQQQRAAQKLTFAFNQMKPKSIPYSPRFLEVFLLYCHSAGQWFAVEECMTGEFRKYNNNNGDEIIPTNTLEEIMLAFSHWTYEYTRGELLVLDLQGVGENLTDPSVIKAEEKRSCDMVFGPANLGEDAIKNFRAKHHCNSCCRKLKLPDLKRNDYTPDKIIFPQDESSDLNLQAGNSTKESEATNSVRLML

- IC50: 16 ± 3 µM
SMILES: c1ccc2c(c1)CCC[C@H]2Nc1nc2ccccc2[nH]1 [NS8593]
